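Briefly, cells in 96-well plates were exposed to five compound concentrations for 48 h, and endpoints were estimated by linear interpolation. At the GI50, growth is halved.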 Calls of active or inactive are those of the source. No stated cut-off is given here; in the data, active = GI50 up to about 1.1 µM and inactive = higher.
Tests used:
Experiment in all cases: NCI tumour cell line growth inhibition, 48 h
[1] = tested on: SF-539
[2] = tested on: A498
[3] = tested on: MCF7
[4] = tested on: SF-268
[5] = tested on: Malme-3M
[6] = tested on: MDA-MB-435
[7] = tested on: COLO 205
[8] = tested on: UACC-257
[9] = tested on: MDA-MB-231
[10] = tested on: CCRF-CEM
[11] = tested on: SNB-75
[12] = tested on: EKVX
[13] = tested on: SF-295
[14] = tested on: MOLT-4
[15] = tested on: U-251
[16] = tested on: PC-3
[17] = tested on: SK-MEL-2
[18] = tested on: NCI-H522
[19] = tested on: SK-MEL-5
[20] = tested on: SK-MEL-28

Compound: NC(=O)CN1CC(C2=C(O)CN(CC(N)=O)C2=O)=CC1=O
- GI50 [1]: > 100 µM (inactive)
- GI50 [2]: > 100 µM (inactive)
- GI50 [3]: > 100 µM (inactive)
- GI50 [4]: > 100 µM (inactive)
- GI50 [5]: > 100 µM (inactive)
- GI50 [6]: > 100 µM (inactive)
- GI50 [7]: > 100 µM (inactive)
- GI50 [8]: > 100 µM (inactive)
- GI50 [9]: > 100 µM (inactive)
- GI50 [10]: > 100 µM (inactive)
- GI50 [11]: > 100 µM (inactive)
- GI50 [12]: > 100 µM (inactive)
- GI50 [13]: > 100 µM (inactive)
- GI50 [14]: > 100 µM (inactive)
- GI50 [15]: > 100 µM (inactive)
- GI50 [16]: > 100 µM (inactive)
- GI50 [17]: > 100 µM (inactive)
- GI50 [18]: > 100 µM (inactive)
- GI50 [19]: > 100 µM (inactive)
- GI50 [20]: > 100 µM (inactive)

Compound: S=C(/N=c1\sc(NCc2ccccc2)nc2sc3c(c12)CCN(N1CCc2c(sc4nc(NCc5ccccc5)s/c(=N\C(=S)NCc5ccccc5)c24)C1)C3)NCc1ccccc1
- GI50 [1]: 23.4 µM (inactive)
- GI50 [2]: 52 µM (inactive)
- GI50 [3]: 15.8 µM (inactive)
- GI50 [4]: 27.4 µM (inactive)
- GI50 [5]: 70.3 µM (inactive)
- GI50 [6]: 42.9 µM (inactive)
- GI50 [7]: 32.1 µM (inactive)
- GI50 [8]: 21.5 µM (inactive)
- GI50 [9]: 8.32 µM (inactive)
- GI50 [10]: 2.56 µM (inactive)
- GI50 [11]: 17.4 µM (inactive)
- GI50 [12]: 19.9 µM (inactive)
- GI50 [13]: 59.3 µM (inactive)
- GI50 [14]: 14.3 µM (inactive)
- GI50 [15]: 10.5 µM (inactive)
- GI50 [16]: 17 µM (inactive)
- GI50 [17]: 58.3 µM (inactive)
- GI50 [18]: 37.7 µM (inactive)
- GI50 [19]: 87.5 µM (inactive)
- GI50 [20]: 63.4 µM (inactive)

Compound: CSc1ccc2c(c1)N(CCCN(C)C)c1ccccc1S2
- GI50 [1]: 17.3 µM (inactive)
- GI50 [2]: 11.2 µM (inactive)
- GI50 [3]: 11.9 µM (inactive)
- GI50 [4]: 13.6 µM (inactive)
- GI50 [5]: 9.16 µM (inactive)
- GI50 [6]: 4.67 µM (inactive)
- GI50 [7]: 12.7 µM (inactive)
- GI50 [8]: 7.16 µM (inactive)
- GI50 [9]: 12.7 µM (inactive)
- GI50 [10]: 5.89 µM (inactive)
- GI50 [11]: 6.97 µM (inactive)
- GI50 [12]: 18.6 µM (inactive)
- GI50 [13]: 12.8 µM (inactive)
- GI50 [14]: 5.81 µM (inactive)
- GI50 [15]: 13.5 µM (inactive)
- GI50 [16]: 11.1 µM (inactive)
- GI50 [17]: 15.6 µM (inactive)
- GI50 [18]: 12.8 µM (inactive)
- GI50 [19]: 11.4 µM (inactive)
- GI50 [20]: 2.29 µM (inactive)

Compound: COC(=O)N/N=C(\C)C(CN1CCOCC1)C(c1ccccc1)c1cc2ccccc2oc1=O (stereo not given)
- GI50 [1]: > 100 µM (inactive)
- GI50 [2]: > 100 µM (inactive)
- GI50 [3]: > 100 µM (inactive)
- GI50 [4]: > 100 µM (inactive)
- GI50 [5]: 62.5 µM (inactive)
- GI50 [6]: > 100 µM (inactive)
- GI50 [7]: 52.6 µM (inactive)
- GI50 [8]: 82.4 µM (inactive)
- GI50 [9]: > 100 µM (inactive)
- GI50 [10]: 44.6 µM (inactive)
- GI50 [11]: > 100 µM (inactive)
- GI50 [12]: > 100 µM (inactive)
- GI50 [13]: > 100 µM (inactive)
- GI50 [14]: 44.2 µM (inactive)
- GI50 [15]: > 100 µM (inactive)
- GI50 [16]: > 100 µM (inactive)
- GI50 [17]: > 100 µM (inactive)
- GI50 [18]: > 100 µM (inactive)
- GI50 [19]: > 100 µM (inactive)
- GI50 [20]: > 100 µM (inactive)

Compound: COc1ccccc1C(=O)N(Cc1ccccc1)c1ccc(Cl)c(C(=O)OC(C)C)c1
- GI50 [1]: 30.6 µM (inactive)
- GI50 [2]: 37.3 µM (inactive)
- GI50 [3]: 47.8 µM (inactive)
- GI50 [4]: 42.3 µM (inactive)
- GI50 [5]: 21.9 µM (inactive)
- GI50 [6]: 27 µM (inactive)
- GI50 [7]: 20.9 µM (inactive)
- GI50 [8]: 14.6 µM (inactive)
- GI50 [9]: 25.9 µM (inactive)
- GI50 [10]: 35.5 µM (inactive)
- GI50 [11]: 19.7 µM (inactive)
- GI50 [12]: 16.7 µM (inactive)
- GI50 [13]: 14.3 µM (inactive)
- GI50 [14]: 14.4 µM (inactive)
- GI50 [15]: 36.6 µM (inactive)
- GI50 [16]: 7.53 µM (inactive)
- GI50 [17]: 14.9 µM (inactive)
- GI50 [18]: 5.93 µM (inactive)
- GI50 [19]: 11.7 µM (inactive)
- GI50 [20]: 41.7 µM (inactive)

Compound: CC(=O)OCC1(C)C(O)CCC2(C)C1CCC1CC3CC12CCC3(O)CO (stereo not given)
- GI50 [1]: 50.6 µM (inactive)
- GI50 [2]: 0.541 µM (active)
- GI50 [3]: > 100 µM (inactive)
- GI50 [4]: > 80.2 µM (inactive)
- GI50 [5]: > 100 µM (inactive)
- GI50 [6]: > 100 µM (inactive)
- GI50 [7]: > 100 µM (inactive)
- GI50 [8]: > 100 µM (inactive)
- GI50 [9]: > 100 µM (inactive)
- GI50 [10]: 9.77 µM (inactive)
- GI50 [11]: > 100 µM (inactive)
- GI50 [12]: > 100 µM (inactive)
- GI50 [13]: 10.8 µM (inactive)
- GI50 [14]: > 56.5 µM (inactive)
- GI50 [15]: > 100 µM (inactive)
- GI50 [16]: > 91 µM (inactive)
- GI50 [17]: > 100 µM (inactive)
- GI50 [18]: > 26.6 µM (inactive)
- GI50 [19]: > 79.4 µM (inactive)
- GI50 [20]: > 100 µM (inactive)

Compound: CCOC(=O)C(C(=O)c1ccccc1C(=O)OC)=P(c1ccccc1)(c1ccccc1)c1ccccc1
- GI50 [1]: > 10 µM (inactive)
- GI50 [2]: > 10 µM (inactive)
- GI50 [3]: > 10 µM (inactive)
- GI50 [4]: > 10 µM (inactive)
- GI50 [5]: > 10 µM (inactive)
- GI50 [6]: > 10 µM (inactive)
- GI50 [7]: > 10 µM (inactive)
- GI50 [8]: > 10 µM (inactive)
- GI50 [9]: > 10 µM (inactive)
- GI50 [10]: > 10 µM (inactive)
- GI50 [11]: > 10 µM (inactive)
- GI50 [12]: > 10 µM (inactive)
- GI50 [13]: > 10 µM (inactive)
- GI50 [14]: > 10 µM (inactive)
- GI50 [15]: > 10 µM (inactive)
- GI50 [16]: > 10 µM (inactive)
- GI50 [17]: > 10 µM (inactive)
- GI50 [18]: > 10 µM (inactive)
- GI50 [19]: > 10 µM (inactive)
- GI50 [20]: > 10 µM (inactive)

Reference: ChEMBL document CHEMBL1201862, “PubChem BioAssay data set” (2004)
